Reference: article PMC9598311, “Identification of a Small Molecule That Inhibits the Interaction of LPS Transporters LptA and LptC” (Antibiotics, 2022)

T1: LptC (Escherichia coli, UniProt P0ADV9)
T1 construct: synthetic gene in pET-28a, N-terminal 6-His tag, expressed in E. coli BL21(DE3), His-Trap purified
T1 sequence (P0ADV9 1-191): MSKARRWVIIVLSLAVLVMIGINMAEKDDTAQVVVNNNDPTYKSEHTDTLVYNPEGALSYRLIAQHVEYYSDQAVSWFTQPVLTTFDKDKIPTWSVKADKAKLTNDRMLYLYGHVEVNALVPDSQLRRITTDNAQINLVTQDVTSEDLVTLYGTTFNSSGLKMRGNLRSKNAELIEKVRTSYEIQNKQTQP

T2: LptA (Escherichia coli, UniProt P0ADV1)
T2 construct: synthetic gene in pET-28a, N-terminal 6-His tag, expressed in E. coli BL21(DE3), His-Trap purified
T2 sequence (P0ADV1 28-185): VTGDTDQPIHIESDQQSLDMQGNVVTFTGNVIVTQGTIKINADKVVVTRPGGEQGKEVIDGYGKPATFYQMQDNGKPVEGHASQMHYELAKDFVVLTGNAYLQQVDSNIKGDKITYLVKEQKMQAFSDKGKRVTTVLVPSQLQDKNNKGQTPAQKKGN

T3: LptC protein with a 6-His tag at the N-terminal (Escherichia coli) (UniProt P0ADV9)
T3 sequence (P0ADV9 whole entry, looked up): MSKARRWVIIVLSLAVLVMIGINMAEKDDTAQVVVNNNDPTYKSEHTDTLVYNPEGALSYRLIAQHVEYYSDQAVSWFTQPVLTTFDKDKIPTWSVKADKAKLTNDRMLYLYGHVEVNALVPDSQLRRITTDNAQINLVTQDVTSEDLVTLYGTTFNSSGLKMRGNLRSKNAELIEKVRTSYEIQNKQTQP


Columns and labels:
[1] = molecular target: T1, LptC; test: SPR, LptC immobilized on carboxymethyl dextran chip; assay type: binding
Excerpt: SPR, LptC immobilized on carboxymethyl dextran chip on LptC

[2] = molecular target: T2, LptA; test: SPR, LptA immobilized on carboxymethyl dextran chip; assay type: binding
Excerpt: SPR, LptA immobilized on carboxymethyl dextran chip on LptA

[3] = test system: T4, LptA/LptC; test: SPR, LptA preincubated with compound passed over immobilized LptC; assay type: binding, Escherichia coli; settings: inhibition of LptA/LptC protein-protein interaction; LptA 15 ug/mL, compound 0-4 ug/mL, PBST
T4 construct: complex formed on chip: LptC immobilized, LptA in solution; both N-terminal 6-His tagged, expressed in E. coli BL21(DE3)

[4] = molecular target: T3, LptC protein with a 6-His tag at the N-terminal (Escherichia coli); test: SPR; Reichert SPR system; LptC immobilised on a mixed self-assembled monolayer (SAM) sensor chip; LptA 0.164 µM to 2.624 µM in PBST (0.01 M Na Phosphate, 0.15 M NaCl, 0.05% Tween 20) passed over; regeneration 1 M NaCl 90 s; TraceDrawer 1.7.1

| Molecule | Kd [1] [µM] | Kd [2] [µM] | SPR, LptA preincubated with compound passed over immobilized LptC [3] | Kd [4] [µM] | koff [4] [s⁻¹] | kon [4] [M⁻¹ s⁻¹] |
| --- | --- | --- | --- | --- | --- | --- |
| CN(C)c1ccc(/C=C/c2cc(C(C)(C)C)[o+]c(C(C)(C)C)c2)cc1 [IMB-0042] | 32.6 | 4.67 | Compound IMB-0042 blocked LptA/LptC interaction. |  |  |  |
| LptA protein with a 6-His tag at the N-terminal (natural protein) VTGDTDQPIHIESDQQSLDMQGNVVTFTGNVIVTQGTIKINADKVVVTRPGGEQGKEVIDGYGKPATFYQMQDNGKPVEGHASQMHYELAKDFVVLTGNAYLQQVDSNIKGDKITYLVKEQKMQAFSDKGKRVTTVLVPSQLQDKNNKGQTPAQKKGN |  |  |  | 2.28 | 0.385 | 169000 |
